According to patent publication US8324245B2, “Quinoline derivative and quinazoline derivative inhibiting self-phosphorylation of hepatocytus proliferator receptor, and medicinal composition containing the same” (Kyowa Hakko Kirin Co., Ltd., priority 2001, dated 2012):
pIC50: −log10 of the molar value.

What was measured:
[1] = tested on: Human gastric cancer cells (MKN 45); experiment: Tumor growth inhibitory activity against various human tumor cells in nude mice: MKN 45; format: in vivo; details: Mus musculus, MKN-45, po, 120 h, MKN45, Oral, 5 days; read-out: TGIR
Protocol: Human gastric cancer cells (MKN 45) (obtained from RIKEN), human brain tumor cells (U87MG) (obtained from ATCC), human pancreatic cancer cells (KP4) (obtained from RIKEN), human pancreatic cancer cells (SUIT-2) (obtained from National Kyushu Cancer Center), and human signet-ring type gastric cancer cells (NUGC-4) (obtained from RIKEN), or human lung cancer cells (LC6) (obtained from Central Laboratories for Experimental Animals) were transplanted into nude mice. […] The test compound suspended in 0.5% methylcellulose was orally administered once or twice a day for 5 days. Only 0.5% methylcellulose was administered to the control group in the manner as in the test groups. Alternatively, the test compound dissolved in physiological saline (with a 1 N aqueous hydrochloric acid solution added thereto) was intraveneously injected once a day for 5 days, and only physiological saline (with a 1 N aqueous hydrochloric acid solution added thereto) was administered to the control group in the same manner as in the test groups. The tumor growth inhibition rate (TGIR) was calculated as follows: The tumor growth inhibition rate (TGIR)=(1−TX/CX)×100 wherein CX represents the relative tumor volume at the 5th day for the control group when the tumor volume at the day of the start of the administration was presumed to be 1; and TX represents the relative tumor volume for test compound administration groups.

[2] = target: T1, met (HGF receptor) in human gastric cancer cells MKN45 (Homo sapiens, UniProt P08581); experiment: Inhibitory activity against met-autophosphorylation using ELISA method (2), MKN45 cells, HGF-independent; format: cell-based
T1 construct: endogenous in cells; host or cells: MKN45 human gastric cancer cells
Summary of the method: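 MKN45 cells, 3×10^4 per well in RPMI with 0.1% FCS overnight, were exposed to compound in DMSO for 1 h at 37 °C without HGF. Lysates were captured on anti-phosphotyrosine (PY20) plates, Met detected with anti-Met and peroxidase secondary antibody, absorbance at 450 nm.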

T1 sequence (P08581 25-1390): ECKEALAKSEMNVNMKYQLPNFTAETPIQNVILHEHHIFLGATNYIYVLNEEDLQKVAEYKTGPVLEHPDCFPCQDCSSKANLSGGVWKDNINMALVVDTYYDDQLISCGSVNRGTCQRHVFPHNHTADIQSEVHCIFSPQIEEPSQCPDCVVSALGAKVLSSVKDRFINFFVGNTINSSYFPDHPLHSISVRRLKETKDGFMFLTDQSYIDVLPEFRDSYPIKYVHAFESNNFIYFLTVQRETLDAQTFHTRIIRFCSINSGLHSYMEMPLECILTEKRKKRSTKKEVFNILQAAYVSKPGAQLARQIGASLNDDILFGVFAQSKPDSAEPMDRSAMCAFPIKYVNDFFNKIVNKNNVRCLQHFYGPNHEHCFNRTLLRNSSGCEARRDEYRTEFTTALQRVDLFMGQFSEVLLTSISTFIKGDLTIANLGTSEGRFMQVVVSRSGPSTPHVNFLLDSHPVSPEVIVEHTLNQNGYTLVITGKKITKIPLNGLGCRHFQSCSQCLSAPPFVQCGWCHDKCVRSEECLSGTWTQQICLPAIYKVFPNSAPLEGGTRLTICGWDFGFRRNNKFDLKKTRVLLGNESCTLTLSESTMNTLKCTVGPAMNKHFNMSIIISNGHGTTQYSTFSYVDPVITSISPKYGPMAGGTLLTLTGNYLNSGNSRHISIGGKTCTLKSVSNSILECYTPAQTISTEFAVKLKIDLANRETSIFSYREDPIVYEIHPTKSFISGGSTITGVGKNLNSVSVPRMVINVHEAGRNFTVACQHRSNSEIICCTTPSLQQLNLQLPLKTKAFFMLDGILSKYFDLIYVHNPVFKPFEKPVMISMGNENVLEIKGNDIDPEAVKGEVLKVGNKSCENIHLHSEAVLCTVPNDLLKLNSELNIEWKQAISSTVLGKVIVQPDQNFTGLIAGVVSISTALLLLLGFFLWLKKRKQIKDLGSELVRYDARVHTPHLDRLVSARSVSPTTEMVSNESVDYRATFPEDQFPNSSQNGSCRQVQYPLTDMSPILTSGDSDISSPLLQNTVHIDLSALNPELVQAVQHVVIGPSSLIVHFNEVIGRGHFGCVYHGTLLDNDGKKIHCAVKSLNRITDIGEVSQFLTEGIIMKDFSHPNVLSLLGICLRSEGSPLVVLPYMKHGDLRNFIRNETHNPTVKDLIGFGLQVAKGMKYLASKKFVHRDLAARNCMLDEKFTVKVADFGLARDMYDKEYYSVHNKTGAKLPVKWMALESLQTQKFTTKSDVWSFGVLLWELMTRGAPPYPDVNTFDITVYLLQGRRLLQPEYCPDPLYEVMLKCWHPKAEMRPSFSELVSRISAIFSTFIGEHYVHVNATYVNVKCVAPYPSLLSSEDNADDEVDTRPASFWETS

| SMILES | inhibition in vivo at 25 mg/kg [1] | pIC50 [2] | inhibition in vivo at 30 mg/kg [1] |
| --- | --- | --- | --- |
| COc1cc2c(Oc3ccc(NC(=S)NC(=O)Cc4cccc(F)c4)cc3Cl)ccnc2cc1OCCCN1CCOCC1 [Example 299, 1-{3-Chloro-4-[6-methoxy-7-(3-morpholin-yl-propoxy)-quinolin-4-yloxy]-phenyl}-3-[2-(3-fluoro-phenyl)-acetyl]-thiourea] | 14% | 7.36 |  |
| COc1cc2c(Oc3ccc(NC(=S)NC(=O)Cc4ccccc4F)cc3F)ccnc2cc1OCC(O)CN1CCOCC1 (centres unmarked) [Example 315] |  | 7.68 | 36% |
| COc1cc2c(Oc3ccc(NC(=S)NC(=O)Cc4ccccc4)cc3F)ccnc2cc1OCC(O)CN1CCCCC1 (centres unmarked) [Example 331] |  | 7.66 | 40% |
| COc1cc2c(Oc3ccc(NC(=S)NC(=O)Cc4ccc(Cl)cc4)cc3F)ccnc2cc1OCC(O)CN1CCOCC1 (centres unmarked) [Example 326, 1-[2-(4-Chloro-phenyl)-acetyl]-3-{3-fluoro-4-[7-(2-hydroxy-3-morpholin-4-yl-propoxy)-6-methoxy-quinolin-4-yloxy]-phenyl}-thiourea] |  | 7.88 | 17% |
| COc1cc2c(Oc3ccc(NC(=S)NC(=O)Cc4ccccc4)cc3F)ccnc2cc1OCC(O)CN1CCCC1 (centres unmarked) [Example 332, 1-{3-Fluoro-4-[7-(2-hydroxy-3-pyrrolidin-1-yl-propoxy)-6-methoxy-quinolin-4-yloxy]-phenyl}-3-(2-phenyl-acetyl)-thiourea] |  | 7.85 | 14% |
| COc1cc2c(Oc3ccc(NC(=S)NC(=O)Cc4cccc(Cl)c4)cc3F)ccnc2cc1OCC(O)CN1CCOCC1 (centres unmarked) [Example 320, 1-[2-(3-Chloro-phenyl)-acetyl]-3-{3-fluoro-4-[7-(2-hydroxy-3-morpholin-4-yl-propoxy)-6-methoxy-quinolin-4-yloxy]-phenyl}-thiourea] |  | 7.85 | 20% |
| COc1cc2c(Oc3ccc(NC(=S)NC(=O)Cc4ccccc4F)cc3F)ccnc2cc1OCCCN1CCOCC1 [Example 288, 1-{3-Fluoro-4-[6-methoxy-7-(3-morpholin-4-yl-propoxy)-quinolin-4-yloxy]-phenyl}-3-[2-(2-fluoro-phenyl)-acetyl]-thiourea] |  | 7.65 | 64% |
| COc1cc2c(Oc3ccc(NC(=S)NC(=O)Cc4cccc(F)c4)cc3F)ccnc2cc1OCC(O)CN1CCOCC1 (centres unmarked) [Example 323, 1-{3-Fluoro-4-[7-(2-hydroxy-3-morpholin-4-yl-propoxy)-6-methoxy-quinolin-4-yloxy]-phenyl}-3-[2-(3-fluoro-phenyl)-acetyl]-thiourea] |  | > 8.00 | 34% |
| COc1cc2c(Oc3ccc(NC(=S)NC(=O)Cc4ccc(F)cc4)cc3F)ccnc2cc1OCCN1CCC(CO)CC1 [Example 282, 1-(3-Fluoro-4-{7-[2-(4-hydroxymethyl-piperidin-1-yl)ethoxy]-6-methoxy-quinolin-4-yloxy}-phenyl)-3-[2-(4-fluoro-phenyl)-acetyl]-thiourea] |  | 7.78 | 13% |
| COc1cc2c(Oc3ccc(NC(=S)NC(=O)Cc4ccccc4Cl)cc3F)ccnc2cc1OCC(O)CN1CCOCC1 (centres unmarked) [Example 314, 1-[2-(2-Chloro-phenyl)-acetyl]-3-{3-fluoro-4-[7-(2-hydroxy-3-morpholin-4-yl-propoxy)-6-methoxy-quinolin-4-yloxy]-phenyl}-thiourea] |  | 7.63 | 38% |
| COc1cc2c(Oc3ccc(NC(=S)NC(=O)Cc4ccccc4C)cc3F)ccnc2cc1OCC(O)CN1CCOCC1 (centres unmarked) [Example 333] |  | 7.68 | 75% |
| COc1cc2c(Oc3ccc(NC(=S)NC(=O)Cc4ccccc4)cc3F)ccnc2cc1OCC(O)CN1CCOCC1 (centres unmarked) [Example 312, 1-{3-Fluoro-4-[7-(2-hydroxy-3-morpholin-4-yl-propoxy)-6-methoxy-quinolin-4-yloxy]-phenyl}-3-phenylacetyl-thiourea] |  | 7.72 | 75% |
| COc1cc2c(Oc3ccc(NC(=S)NC(=O)Cc4ccc(F)cc4)cc3F)ccnc2cc1OCCN1CCOCC1 [Example 277, 1-{3-Fluoro-4-[6-methoxy-7-(2-morpholin-4-yl-ethoxy)-quinolin-4-yloxy]-phenyl}-3-[2-(4-fluorophenyl)-acetyl]-thiourea] |  | 7.69 | 17% |
| COc1cc2c(Oc3ccc(NC(=S)NC(=O)Cc4cccc(C)c4)cc3F)ccnc2cc1OCC(O)CN1CCOCC1 (centres unmarked) [Example 334] |  | 7.64 | 65% |
| COc1cc2nccc(Oc3ccc(NC(=O)NC(=O)Nc4ccc(C)cc4)cc3)c2cc1OC [Example 257, N-(4-methylphenyl)-({[4-(6,7-dimethoxy-quinolin-4-yloxy)anilino]carbonyl}amino)methanamide] |  | 6.54 |  |
| COc1cc2nccc(Oc3ccc(NC(=S)NC(=O)CCCC(C)C)cc3)c2cc1OC [Example 177, 1-[4-(6,7-dimethoxyquinolin-4-yloxy)phenyl]-3-(5-methyl-hexanoyl)thiourea] |  | 6.57 |  |
| COc1cc2nccc(Oc3ccc(NC(=O)CC(=O)Nc4cccc(Cl)c4)cc3)c2cc1OC [Example 210, N-(3-chlorophenyl)-N′-[4-(6,7-dimethoxy-quinolin-4-yloxy)phenyl]malonamide] |  | 6.64 |  |
| COc1cc2nccc(Oc3ccc(NC(=S)NC(=O)CC4CCCCC4)c(F)c3)c2cc1OC [Example 166, 1-(2-cyclohexylacetyl)-3-[4-(6,7-dimethoxy-quinolin-4-yloxy)-2-fluorophenyl]thiourea] |  | 6.50 |  |
| COc1cc2nccc(Oc3ccc(NC(=S)NC(=O)Cc4ccc(F)cc4F)cc3F)c2cc1OC [Example 94, 1-[2-(2,4-difluorophenyl)acetyl]-3-[4-(6,7-dimethoxyquinolin-4-yloxy)-3-fluorophenyl]thiourea] |  | 7.51 |  |
| COc1cc2nccc(Oc3ccc(NC(=O)NC(=O)Cc4ccc(F)cc4)cc3)c2cc1OC [Example 22, 1-[4-(6,7-dimethoxyquinolin-4-yloxy)phenyl]-3-[2-(4-fluorophenyl)acetyl]urea] |  | 7.61 |  |
| COc1cc2c(Oc3ccc(NC(=O)CC(=O)Nc4ccc(F)cc4)cc3F)ccnc2cc1OCCCN1CCOCC1 [Example 269, N-{3-fluoro-4-[6-methoxy-7-(3-morpholin-4-yl-propoxy)quinolin-4-yloxy]phenyl}-N′-(4-fluorophenyl)-malonamide] |  | 7.90 |  |
| COc1cc2nccc(Oc3ccc(NC(=O)NC(=O)CSc4ccccc4)cc3)c2cc1OC [Example 129, 1-[4-(6,7-dimethoxyquinolin-4-yloxy)phenyl]-3-(2-phenylsulfanylacetyl)urea] |  | 6.00 |  |
| COc1cc2nccc(Oc3ccc(NC(=O)NC(=O)Cc4cc(F)cc(F)c4)cc3F)c2cc1OC [Example 142, 1-[2-(3,5-difluorophenyl)acetyl]-3-[4-(6,7-dimethoxyquinolin-4-yloxy)-3-fluorophenyl]urea] |  | 6.55 |  |
| COc1cc2nccc(Oc3ccc(NC(=S)NC(=O)Cc4ccccc4)c(F)c3)c2cc1OC [Example 58, 1-[4-(6,7-dimethoxyquinolin-4-yloxy)-2-fluorophenyl]-3-phenylacetylthiourea] |  | 7.57 |  |
| COc1ccccc1CC(=O)NC(=S)Nc1ccc(Oc2ccnc3cc(OC)c(OC)cc23)cc1 [Example 153, 1-[4-(6,7-dimethoxyquinolin-4-yloxy)phenyl]-3-[2-(2-methoxyphenyl)acetyl]thiourea] |  | 6.63 |  |
| COc1cc2c(Oc3ccc(NC(=S)NC(=O)Cc4ccc(C)cc4)cc3F)ccnc2cc1OCCCN1CCOCC1 [Example 304, 1-{3-Fluoro-4-[6-methoxy-7-(3-morpholin-4-yl-propoxy)-quinolin-4-yloxy]-phenyl}-3-(2-p-toluyl-acetyl)-thiourea] |  | 7.18 |  |
| CCCCC(=O)NC(=O)Nc1ccc(Oc2ccnc3cc(OC)c(OC)cc23)c(Cl)c1 [Example 109, 1-[3-chloro-4-(6,7-dimethoxyquinolin-4-yloxy)phenyl]-3-pentanoylurea] |  | 5.83 |  |
| COc1cccc(CC(=O)NC(=S)Nc2ccc(Oc3ccnc4cc(OC)c(OC)cc34)cc2F)c1 [Example 185, 1-[4-(6,7-dimethoxyquinolin-4-yloxy)-2-fluorophenyl]-3-[2-(3-methoxyphenyl)acetyl]thiourea] |  | 6.61 |  |
| COc1cccc(NC(=O)NC(=O)Nc2ccc(Oc3ccnc4cc(OC)c(OC)cc34)cc2)c1 [Example 244, N-(3-methoxyphenyl)-({[4-(6,7-dimethoxy-quinolin-4-yloxy)anilino]carbonyl}amino)methanamide] |  | 6.47 |  |
| COc1cc2c(Oc3ccc(NC(=O)NC(=O)Cc4ccccc4F)cc3F)ccnc2cc1OCCCN1CCCCC1 [Example 295, 1-{3-Fluoro-4-[6-methoxy-7-(3-piperidin-1-yl-propoxy)-quinolin-4-yloxy]-phenyl}-3-[2-(2-fluoro-phenyl)-acetyl]-urea] |  | 7.62 |  |
